Results from patent publication US6734205B2, “Substituted guanidine derivatives” (Sumitomo Pharmaceuticals Company Limited, priority 1999, dated 2004).
Counter-ions that a name gives are not always drawn.

SMILES	melting point
Cn1c(C(=O)NC(=N)N)cc2ccc(OS(=O)(=O)O)cc21 (as salt: sulfate) [Example 7, 2-[[[Amino(imino)methyl]amino]carbonyl]-1-methyl-1H-indol-6-yl Hydrogen Sulfate]	283 to 284 °C (dec.)
Cn1c(C(=O)NC(=N)N)cc2c(C(F)(F)F)ccc(CCS(=O)(=O)O)c21 [Example 40, 2-[2-[[[Amino(imino)methyl]amino]carbonyl]-1-methyl-4-(trifluoromethyl)-1H-indol-7-yl]ethanesulfonic Acid]	≥ 300 °C
Cn1c(C(=O)NC(=N)N)cc2c(Cl)ccc(OS(=O)(=O)O)c21 (as salt: sulfate) [Example 14, 2-[[[Amino(imino)methyl]amino]carbonyl]-4-chloro-1-methyl-1H-indol-7-yl Hydrogen Sulfate]	338 °C (dec.)
Cc1cccc2c1cc(C(=O)NC(=N)N)n2CCCS(=O)(=O)O [Example 29, 3-[2-[[[Amino(imino)methyl]amino]carbonyl]-4-methyl-1H-indol-1-yl]-1-propanesulfonic Acid]	298 °C (dec.)
Cn1c(C(=O)NC(=N)N)cc2c(C(F)(F)F)ccc(OCC(=O)O)c21 [Example 22, [[2-[[[Amino(imino)methyl]amino]carbonyl]-1-methyl-4-(trifluoromethyl)-1H-indol-7-yl]oxy]acetic Acid]	224 to 233 °C (dec.)
Cn1c(C(=O)NC(=N)N)cc2cc(OS(=O)(=O)O)ccc21 (as salt: sulfate) [Example 6, 2-[[[Amino(imino)methyl]amino]carbonyl]-1-methyl-1H-indol-5-yl Hydrogen Sulfate]	280 to 281 °C (dec.)
CS(=O)(=O)O.Cn1c(C(=O)NC(=N)N)cc2cc(O[C@@H]3O[C@H](C(=O)O)[C@@H](O)[C@H](O)[C@H]3O)ccc21 [Example 9, [2-[[[Amino(imino)methyl]amino]carbonyl]-1-methyl-1H-indol-5-yl] β-D-glucopyranosideuronic Acid Methanesulfonate]	219 °C (dec.)
Cn1c(C(=O)NC(=N)N)cc2c(C(F)(F)F)ccc(OCCS(=O)(=O)O)c21 [Example 31, 2-[[2-[[[Amino(imino)methyl]amino]carbonyl]-1-methyl-4-(trifluoromethyl)-1H-indol-7-yl]oxy]-ethanesulfonic Acid]	275 °C (dec.)
Cn1c(C(=O)NC(=N)N)cc2cccc(OS(=O)(=O)O)c21 (as salt: sulfate) [Example 3, 2-[[[Amino(imino)methyl]amino]carbonyl]-1-methyl-1H-indol-7-yl Hydrogen Sulfate]	279 to 280 °C (dec.)
Cn1c(C(=O)NC(=N)N)cc2c(C(F)(F)F)ccc(OS(=O)(=O)O)c21 (as salt: sulfate) [Example 13, 2-[[[Amino(imino)methyl]amino]carbonyl]-1-methyl-4-(trifluoromethyl)-1H-indol-7-yl Hydrogen Sulfate]	298 °C (dec.)
Cn1c(C(=O)NC(=N)N)cc2c(OS(=O)(=O)O)cccc21 (as salt: sulfate) [Example 5, 2-[[[Amino(imino)methyl]amino]carbonyl]-1-methyl-1H-indol-4-yl Hydrogen Sulfate]	249 to 250 °C (dec.)
Cn1c(C(=O)NC(=N)N)cc2c(C(F)(F)F)ccc(CS(=O)(=O)O)c21 [Example 38, [2-[[[Amino(imino)methyl]amino]carbonyl]-1-methyl-4-(trifluoromethyl)-1H-indol-7-yl]methanesulfonic Acid]	≥ 300 °C
Cn1c(C(=O)NC(=N)N)cc2c(C(F)(F)F)ccc(OCCCS(=O)(=O)O)c21 [Example 33, 3-[[2-[[[Amino(imino)methyl]amino]carbonyl]-1-methyl-4-(trifluoromethyl)-1H-indol-7-yl]oxy]-1-propanesulfonic Acid]	≥ 272 °C (dec.)
CS(=O)(=O)O.Cn1c(C(=O)NC(=N)N)cc2ccc(O[C@@H]3O[C@H](C(=O)O)[C@@H](O)[C@H](O)[C@H]3O)cc21 [Example 8, [2-[[[amino(imino)methyl]amino]-carbonyl]-1-methyl-1H-indol-6-yl] β-D-glucopyranosideuronic Acid Methanesulfonate]	170 to 171 °C
N=C(N)NC(=O)c1cc2c(Cl)cccc2n1CCCS(=O)(=O)O [Example 27, 3-[2-[[[amino(imino)methyl]-amino]carbonyl]-4-chloro-1H-indol-1-yl]-1-propanesulfonic Acid]	281 °C (dec.)
N=C(N)NC(=O)c1cc2c(C(F)(F)F)cccc2n1CCCS(=O)(=O)O [Example 28, 3-[2-[[[Amino(imino)methyl]amino]carbonyl]-4-(trifluoromethyl)-1H-indol-1-yl]-1-propanesulfonic Acid]	> 300 °C

More lines, now with the values ahead:

melting point	SMILES
231 to 266 °C (dec.)	Cn1c(C(=O)NC(=N)N)cc2c(C(F)(F)F)cc(CP(=O)(O)O)cc21 [Example 15, [2-[[[amino(imino)methyl]amino]-carbonyl]-1-methyl-4-(trifluoromethyl)-1H-indol-6-yl]-methylphosphonic Acid]
≥ 300 °C	Cn1c(C(=O)NC(=N)N)cc2c(Cl)cc(CCS(=O)(=O)O)cc21 [Example 41, 2-[2-[[[Amino(imino)methyl]amino]carbonyl]-4-chloro-1-methyl-1H-indol-6-yl]ethanesulfonic Acid]
286 °C (dec.)	CS(=O)(=O)O.Cn1c(C(=O)NC(=N)N)cc2c(C(F)(F)F)cc(P(=O)(O)O)cc21
250 to 266 °C (dec.)	Cn1c(C(=O)NC(=N)N)cc2c(C(F)(F)F)cc(OCC(=O)O)cc21 [Example 21, [[2-[[[amino(imino)methyl]-amino]carbonyl]-1-methyl-4-(trifluoromethyl)-1H-indol-6-yl]oxy]acetic Acid]
260 to 270 °C (dec.)	Cc1cc(OCC(=O)O)cc2c1cc(C(=O)NC(=N)N)n2C [Example 25, [[2-[[[Amino(imino)methyl]amino]carbonyl]-1,4-dimethyl-1H-indol-6-yl]oxy]acetic Acid]
325 °C (dec.)	Cn1c(C(=O)NC(=N)N)cc2c(Cl)cc(OCCCS(=O)(=O)O)cc21 [Example 34, 3-[[2-[[[Amino(imino)methyl]amino]carbonyl]-4-chloro-1-methyl-1H-indol-6-yl]oxy]-1-propanesulfonic Acid]
265 to 282 °C (dec.)	Cn1c(C(=O)NC(=N)N)cc2c(Cl)cc(CP(=O)(O)O)cc21 [Example 17, [2-[[[Amino(imino)methyl]amino]carbonyl]-4-chloro-1-methyl-1H-indol-6-yl]methylphosphonic Acid]
247 °C	Cn1c(C(=O)NC(=N)N)cc2c(Cl)ccc(OCP(=O)(O)O)c21 [Example 48, [[2-[[[Amino(imino)methyl]amino]carbonyl]-4-chloro-1-methyl-1H-indol-7-yl]oxy]methylphosphonic Acid]
257 to 260 °C (dec.)	Cn1c(C(=O)NC(=N)N)cc2c(Cl)cc(OCC(=O)O)cc21 [Example 23, [[2-[[[Amino(imino)methyl]amino]carbonyl]-4-chloro-1-methyl-1H-indol-6-yl]oxy]acetic Acid]
≥ 278 °C (dec.)	Cc1ccc(OCCCS(=O)(=O)O)c2c1cc(C(=O)NC(=N)N)n2C [Example 36, 3-[[2-[[[Amino(imino)methyl]amino]carbonyl]-1,4-dimethyl-1H-indol-7-yl]oxy]-1-propanesulfonic Acid]
248 to 252 °C (dec.)	Cc1ccc(OCC(=O)O)c2c1cc(C(=O)NC(=N)N)n2C [Example 26, [[2-[[[Amino(imino)methyl]amino]carbonyl]-1,4-dimethyl-1H-indol-7-yl]oxy]acetic Acid]
260 °C (dec.)	Cn1c(C(=O)NC(=N)N)cc2c(C(F)(F)F)ccc(OCP(=O)(O)O)c21 [Example 46, [[2-[[[Amino(imino)methyl]amino]carbonyl]-1-methyl-4-(trifluoromethyl)-1H-indol-7-yl]oxy]methylphosphonic Acid]
290 °C (dec.)	Cc1cc(OCCCS(=O)(=O)O)cc2c1cc(C(=O)NC(=N)N)n2C [Example 35, 3-[[2-[[[Amino(imino)methyl]amino]carbonyl]-1,4-dimethyl-1H-indol-6-yl]oxy]-1-propanesulfonic Acid]
300 °C (dec.)	Cn1c(C(=O)NC(=N)N)cc2c(C(F)(F)F)cc(OS(=O)(=O)O)cc21 (as salt: sulfate) [Example 12, 2-[[[Amino(imino)methyl]amino]carbonyl]-1-methyl-4-(trifluoromethyl)-1H-indol-6-yl Hydrogen Sulfate]
256 °C (dec.)	Cn1c(C(=O)NC(=N)N)cc2c(Cl)ccc(CCP(=O)(O)O)c21 [Example 53, 2-[2-[[[Amino(imino)methyl]amino]carbonyl]-4-chloro-1-methyl-1H-indol-7-yl]ethylphosphonic Acid]
273 to 284 °C (dec.)	Cn1c(C(=O)NC(=N)N)cc2c(Cl)ccc(CP(=O)(O)O)c21 [Example 18, [2-[[[Amino(imino)methyl]amino]carbonyl]-4-chloro-1-methyl-1H-indol-7-yl]methylphosphonic Acid]
249 to 265 °C (dec.)	Cn1c(C(=O)NC(=N)N)cc2c(C(F)(F)F)ccc(CP(=O)(O)O)c21 [Example 16, [2-[[[Amino(imino)methyl]amino]carbonyl]-1-methyl-4-(trifluoromethyl)-1H-indol-7-yl]methylphosphonic Acid]
239 to 280 °C (dec.)	Cc1ccc(CP(=O)(O)O)c2c1cc(C(=O)NC(=N)N)n2C [Example 20, [2-[[[Amino(imino)methyl]amino]carbonyl]-1,4-dimethyl-1H-indol-7-yl]methylphosphonic Acid]
263 °C (dec.)	Cn1c(C(=O)NC(=N)N)cc2c(Cl)cc(OCP(=O)(O)O)cc21 [Example 47, [[2-[[[Amino(imino)methyl]amino]carbonyl]-4-chloro-1-methyl-1H-indol-6-yl]oxy]methylphosphonic Acid]
255 °C (dec.)	Cc1cc(CCP(=O)(O)O)cc2c1cc(C(=O)NC(=N)N)n2C [Example 54, 2-[2-[[[Amino(imino)methyl]amino]carbonyl]-1,4-dimethyl-1H-indol-6-yl]ethylphosphonic Acid]
